Laboratory results from US20210045385A1, “PYRIDAZINONE-SUBSTITUTED KETOXIMES AS HERBICIDES” (FMC Corporation, priority 2018, published 2021).

Tests used:
Assay type in all cases: in vivo
[1] = test system: Italian ryegrass (Lolium mutiflorum); test: Test C preemergence, visual plant response rating
Text: (§1) Seeds of plant species selected from barnyardgrass (Echinochloa crus-galli), kochia (Bassia scoparia), ragweed (common ragweed, Ambrosia artemisiifolia), Italian ryegrass (Lolium mutiflorum), foxtail, giant (giant foxtail, Setaria faberi), foxtail, green (green foxtail, Setaria viridis), and pigweed (Amaranthus retroflexus) were planted into a blend of loam soil and sand and treated preemergence with a directed soil spray using test chemicals formulated in anon-phytotoxic solvent mixture which included a surfactant.
(§2) At the same time, plants selected from these weed species and also wheat (Triticum aestivum), corn (Zea mays), blackgrass (Alopecurus myosuroides), and galium (catchweed bedstraw, Galium aparine) were planted in pots containing the same blend of loam soil and sand and treated with post emergence applications of test chemicals formulated in the same manner. Plants ranged in height from 2 to 10 cm and were in the one- to two-leaf stage for the postemergence treatment. Treated plants and untreated controls were maintained in a greenhouse for approximately 10 d, after which time all treated plants were compared to untreated controls and visually evaluated for injury. Plant response ratings, summarized in Table C, are based on a 0 to 100 scale where 0 is no effect and 100 is complete control. A dash (-)response means no test result.

[2] = test system: barnyardgrass (Echinochloa crus-galli); test: Test C preemergence, visual plant response rating
Text: as §1, §2

[3] = test system: foxtail, giant (giant foxtail, Setaria faberi); test: Test C preemergence, visual plant response rating
Text: as §1, §2

kochia (Bassia scoparia) [4] = test: Test C preemergence, visual plant response rating
Text: as §1, §2

[5] = test system: pigweed (Amaranthus retroflexus); test: Test C preemergence, visual plant response rating
Text: as §1, §2

[6] = test system: Italian ryegrass (Lolium mutiflorum); test: Test C postemergence, visual plant response rating
Text: as §1, §2

[7] = test system: barnyardgrass (Echinochloa crus-galli); test: Test C postemergence, visual plant response rating
Text: as §1, §2

[8] = test system: blackgrass (Alopecurus myosuroides); test: Test C postemergence, visual plant response rating
Text: as §1, §2

corn (Zea mays) = test: Test C postemergence, visual plant response rating
Text: as §1, §2

[9] = test system: foxtail, giant (giant foxtail, Setaria faberi); test: Test C postemergence, visual plant response rating
Text: as §1, §2

[10] = test system: galium (catchweed bedstraw, Galium aparine); test: Test C postemergence, visual plant response rating
Text: as §1, §2

kochia (Bassia scoparia) [11] = test: Test C postemergence, visual plant response rating
Text: as §1, §2

[12] = test system: pigweed (Amaranthus retroflexus); test: Test C postemergence, visual plant response rating
Text: as §1, §2

[13] = test system: ragweed (common ragweed, Ambrosia artemisiifolia); test: Test C postemergence, visual plant response rating
Text: as §1, §2

[14] = test system: wheat (Triticum aestivum); test: Test C postemergence, visual plant response rating
Text: as §1, §2

[15] = test system: barnyardgrass (Echinochloa crus-galli); test: Test D flooded paddy test, visual plant response rating; details: 250 g ai/ha, scale 0 to 100 (0 no effect, 100 complete control), 13 to 15 d
Description: (§3) Plant species in the flooded paddy test selected from rice (Oryza sativa), sedge umbrella (small-flower umbrella sedge, Cyperus difformis) duck salad (Heteranthera limosa), and barnyardgrass (Echinochloa crus-galli) were grown to the 2-leaf stage for testing. At time of treatment, test pots were flooded to 3 cm above the soil surface, treated by application of test compounds directly to the paddy water, and then maintained at that water depth for the duration of the test. Treated plants and controls were maintained in a greenhouse for 13 to 15 d, after which time all species were compared to controls and visually evaluated. Plant response ratings, summarized in Table D, are based on a scale of 0 to 100 where 0 is no effect and 100 is complete control. A dash (-) response means no test result.

[16] = test system: duck salad (Heteranthera limosa); test: as above; details: 250 g ai/ha, scale 0 to 100 (0 no effect, 100 complete control), 13 to 15 d
Description: as §3

rice (Oryza sativa) = test: as above; details: 250 g ai/ha, scale 0 to 100 (0 no effect, 100 complete control), 13 to 15 d
Description: as §3

[17] = test system: sedge umbrella (small-flower umbrella sedge, Cyperus difformis); test: as above; details: 250 g ai/ha, scale 0 to 100 (0 no effect, 100 complete control), 13 to 15 d
Description: as §3

[18] = Test C, 31 g ai/ha, 0 is no effect, 100 is complete control
[19] = Test C, postemergence, 125 g ai/ha
[20] = Test C, 125 g ai/ha, 0 is no effect, 100 is complete control

CON=C(c1cc(Cl)cc(Cl)c1)c1c(O)c(C)nn(C)c1=O [Compound 188]
90: Foxtail, Giant plant response rating (0 to 100 scale) [3, 18] | Pigweed plant response rating (0 to 100 scale) ([5]; 125 g ai/ha) | Foxtail, Giant plant response rating (0 to 100 scale) [9, 19] | Pigweed plant response rating (0 to 100 scale) [12, 19]
85: Plant response rating, Sedge, Umbrella (Flood) [17]
15: Plant response rating, Barnyardgrass (Flood) [15]
80: Ryegrass, Italian plant response rating (0 to 100 scale) [1, 18] | Ryegrass, Italian plant response rating (0 to 100 scale) ([6]; Postemergence, 31 g ai/ha) | Kochia plant response rating (0 to 100 scale) (kochia (Bassia scoparia) [11]; Postemergence, 31 g ai/ha) | Pigweed plant response rating (0 to 100 scale) ([12]; Postemergence, 31 g ai/ha)
0: Corn plant response rating (0 to 100 scale) (corn (Zea mays); Postemergence, 31 g ai/ha) | Plant response rating, Rice (Flood) (rice (Oryza sativa))
40: Blackgrass plant response rating (0 to 100 scale) ([8]; Postemergence, 31 g ai/ha) | Foxtail, Giant plant response rating (0 to 100 scale) ([9]; Postemergence, 31 g ai/ha)
30: Barnyardgrass plant response rating (0 to 100 scale) [2, 18] | Barnyardgrass plant response rating (0 to 100 scale) ([7]; Postemergence, 31 g ai/ha) | Blackgrass plant response rating (0 to 100 scale) [8, 19] | Corn plant response rating (0 to 100 scale) (corn (Zea mays); [19])
10: Kochia plant response rating (0 to 100 scale) (kochia (Bassia scoparia) [4]; [18]) | Wheat plant response rating (0 to 100 scale) ([14]; Postemergence, 31 g ai/ha)
50: Wheat plant response rating (0 to 100 scale) [14, 19]
70: Pigweed plant response rating (0 to 100 scale) [5, 18] | Plant response rating, Ducksalad (Flood) [16]
60: Barnyardgrass plant response rating (0 to 100 scale) [7, 19] | Ragweed plant response rating (0 to 100 scale) ([13]; Postemergence, 31 g ai/ha)
100: Ryegrass, Italian plant response rating (0 to 100 scale) ([1]; 125 g ai/ha) | Barnyardgrass plant response rating (0 to 100 scale) ([2]; 125 g ai/ha) | Foxtail, Giant plant response rating (0 to 100 scale) ([3]; 125 g ai/ha) | Kochia plant response rating (0 to 100 scale) (kochia (Bassia scoparia) [4]; 125 g ai/ha) | Ryegrass, Italian plant response rating (0 to 100 scale) [6, 19] | Galium plant response rating (0 to 100 scale) ([10]; Postemergence, 31 g ai/ha) | Galium plant response rating (0 to 100 scale) [10, 19] | Kochia plant response rating (0 to 100 scale) (kochia (Bassia scoparia) [11]; [19]) | Ragweed plant response rating (0 to 100 scale) [13, 19]

CCCCO/N=C(\c1cc(Cl)cc(Cl)c1Cl)c1c(O)c(C)nn(C)c1=O [Compound 183]
80: Ryegrass, Italian plant response rating (0 to 100 scale) ([1]; 125 g ai/ha) | Foxtail, Giant plant response rating (0 to 100 scale) [9, 19]
10: Pigweed plant response rating (0 to 100 scale) ([5]; 125 g ai/ha) | Galium plant response rating (0 to 100 scale) ([10]; Postemergence, 31 g ai/ha) | Kochia plant response rating (0 to 100 scale) (kochia (Bassia scoparia) [11]; [19]) | Pigweed plant response rating (0 to 100 scale) [12, 19]
40: Foxtail, Giant plant response rating (0 to 100 scale) [3, 18] | Ryegrass, Italian plant response rating (0 to 100 scale) ([6]; Postemergence, 31 g ai/ha) | Barnyardgrass plant response rating (0 to 100 scale) [7, 19]
20: Ragweed plant response rating (0 to 100 scale) ([13]; Postemergence, 31 g ai/ha)
100: Foxtail, Giant plant response rating (0 to 100 scale) ([3]; 125 g ai/ha) | Ragweed plant response rating (0 to 100 scale) [13, 19]
60: Ryegrass, Italian plant response rating (0 to 100 scale) [6, 19]
0: Ryegrass, Italian plant response rating (0 to 100 scale) [1, 18] | Barnyardgrass plant response rating (0 to 100 scale) [2, 18] | Kochia plant response rating (0 to 100 scale) (kochia (Bassia scoparia) [4]; 125 g ai/ha) | Kochia plant response rating (0 to 100 scale) (kochia (Bassia scoparia) [4]; [18]) | Pigweed plant response rating (0 to 100 scale) [5, 18] | Barnyardgrass plant response rating (0 to 100 scale) ([7]; Postemergence, 31 g ai/ha) | Blackgrass plant response rating (0 to 100 scale) ([8]; Postemergence, 31 g ai/ha) | Blackgrass plant response rating (0 to 100 scale) [8, 19] | Corn plant response rating (0 to 100 scale) (corn (Zea mays); Postemergence, 31 g ai/ha) | Corn plant response rating (0 to 100 scale) (corn (Zea mays); [19]) | Kochia plant response rating (0 to 100 scale) (kochia (Bassia scoparia) [11]; Postemergence, 31 g ai/ha) | Pigweed plant response rating (0 to 100 scale) ([12]; Postemergence, 31 g ai/ha) | Wheat plant response rating (0 to 100 scale) ([14]; Postemergence, 31 g ai/ha) | Wheat plant response rating (0 to 100 scale) [14, 19] | Plant response rating, Barnyardgrass (Flood) [15] | Plant response rating, Ducksalad (Flood) [16] | Plant response rating, Rice (Flood) (rice (Oryza sativa)) | Plant response rating, Sedge, Umbrella (Flood) [17]
70: Barnyardgrass plant response rating (0 to 100 scale) ([2]; 125 g ai/ha)
30: Foxtail, Giant plant response rating (0 to 100 scale) ([9]; Postemergence, 31 g ai/ha) | Galium plant response rating (0 to 100 scale) [10, 19]

CO/N=C(\c1c(OC(C)=O)c(Cl)nn(C)c1=O)c1cc(Br)cc2ccccc12 [Compound 231]
0: Ryegrass, Italian plant response rating (0 to 100 scale) [1, 20] | Kochia plant response rating (0 to 100 scale) (kochia (Bassia scoparia) [4]; [20]) | Ryegrass, Italian plant response rating (0 to 100 scale) ([6]; Postemergence, 31 g ai/ha) | Corn plant response rating (0 to 100 scale) (corn (Zea mays); Postemergence, 31 g ai/ha) | Wheat plant response rating (0 to 100 scale) ([14]; Postemergence, 31 g ai/ha) | Wheat plant response rating (0 to 100 scale) [14, 19] | Plant response rating, Rice (Flood) (rice (Oryza sativa))
50: Pigweed plant response rating (0 to 100 scale) [5, 20]
100: Galium plant response rating (0 to 100 scale) [10, 19] | Ragweed plant response rating (0 to 100 scale) ([13]; Postemergence, 31 g ai/ha) | Ragweed plant response rating (0 to 100 scale) [13, 19]
70: Barnyardgrass plant response rating (0 to 100 scale) [7, 19] | Foxtail, Giant plant response rating (0 to 100 scale) [9, 19] | Galium plant response rating (0 to 100 scale) ([10]; Postemergence, 31 g ai/ha)
90: Barnyardgrass plant response rating (0 to 100 scale) [2, 20] | Foxtail, Giant plant response rating (0 to 100 scale) [3, 20]
10: Ryegrass, Italian plant response rating (0 to 100 scale) [6, 19] | Blackgrass plant response rating (0 to 100 scale) ([8]; Postemergence, 31 g ai/ha) | Kochia plant response rating (0 to 100 scale) (kochia (Bassia scoparia) [11]; Postemergence, 31 g ai/ha)
60: Barnyardgrass plant response rating (0 to 100 scale) [2, 18] | Pigweed plant response rating (0 to 100 scale) [12, 19]
15: Plant response rating, Barnyardgrass (Flood) [15]
75: Plant response rating, Ducksalad (Flood) [16]
20: Blackgrass plant response rating (0 to 100 scale) [8, 19] | Corn plant response rating (0 to 100 scale) (corn (Zea mays); [19]) | Kochia plant response rating (0 to 100 scale) (kochia (Bassia scoparia) [11]; [19]) | Pigweed plant response rating (0 to 100 scale) ([12]; Postemergence, 31 g ai/ha)
30: Foxtail, Giant plant response rating (0 to 100 scale) [3, 18] | Barnyardgrass plant response rating (0 to 100 scale) ([7]; Postemergence, 31 g ai/ha) | Foxtail, Giant plant response rating (0 to 100 scale) ([9]; Postemergence, 31 g ai/ha) | Plant response rating, Sedge, Umbrella (Flood) [17]
40: Pigweed plant response rating (0 to 100 scale) [5, 18]
